The source of these data is ChEMBL document CHEMBL5634108, “The latest perspectives of small molecules FMS kinase inhibitors” (Eur J Med Chem, 2023).

For experiment [1], the target named is T1, Mast/stem cell growth factor receptor Kit (Homo sapiens, UniProt P10721). Kind of experiment: Inhibition of c-Kit (unknown origin) in presence of ATP.
In the next experiment the test system is SF-268. Kind of experiment: Growth inhibition of human SF-268 cells by sulforhodamine B assay. Type of experiment: functional.
Experiment [2] deals with T2, Macrophage colony-stimulating factor 1 receptor (Homo sapiens, UniProt P07333). Kind of experiment: Inhibition of FMS (unknown origin) by kinase assay.
T2 sequence (P07333 whole entry): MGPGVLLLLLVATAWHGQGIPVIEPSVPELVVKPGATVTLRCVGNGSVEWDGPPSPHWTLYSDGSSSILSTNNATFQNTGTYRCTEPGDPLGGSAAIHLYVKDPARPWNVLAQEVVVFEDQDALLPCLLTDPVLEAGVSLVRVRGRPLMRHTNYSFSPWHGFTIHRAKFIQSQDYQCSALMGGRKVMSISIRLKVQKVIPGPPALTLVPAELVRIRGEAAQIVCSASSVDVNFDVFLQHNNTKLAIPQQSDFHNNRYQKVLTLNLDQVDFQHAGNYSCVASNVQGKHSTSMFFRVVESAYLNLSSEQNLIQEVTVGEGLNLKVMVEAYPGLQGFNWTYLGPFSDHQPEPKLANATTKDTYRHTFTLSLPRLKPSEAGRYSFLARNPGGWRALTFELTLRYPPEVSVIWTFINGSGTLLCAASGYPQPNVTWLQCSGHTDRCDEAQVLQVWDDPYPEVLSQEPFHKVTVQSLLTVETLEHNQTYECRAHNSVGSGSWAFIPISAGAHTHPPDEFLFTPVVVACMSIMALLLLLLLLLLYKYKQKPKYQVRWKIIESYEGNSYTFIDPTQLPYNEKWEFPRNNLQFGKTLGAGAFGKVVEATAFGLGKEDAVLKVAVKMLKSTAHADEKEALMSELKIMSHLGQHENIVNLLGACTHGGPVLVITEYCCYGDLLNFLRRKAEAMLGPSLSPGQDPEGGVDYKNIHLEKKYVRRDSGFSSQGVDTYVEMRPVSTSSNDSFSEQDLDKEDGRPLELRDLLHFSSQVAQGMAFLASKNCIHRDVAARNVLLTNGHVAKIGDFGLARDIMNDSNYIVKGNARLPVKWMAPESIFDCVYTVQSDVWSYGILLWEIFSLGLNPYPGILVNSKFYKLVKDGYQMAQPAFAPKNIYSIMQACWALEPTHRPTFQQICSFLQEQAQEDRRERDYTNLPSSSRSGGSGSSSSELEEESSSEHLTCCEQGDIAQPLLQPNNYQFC
Experiment [3] deals with Receptor-type tyrosine-protein kinase FLT3 (Homo sapiens) (UniProt P36888). Kind of experiment: Inhibition of FLT3 (unknown origin) at 10 uM by biochemical Hotspot kinase assay relative to control.
The target in experiment [4] is T3, Receptor-type tyrosine-protein kinase FLT3 (Homo sapiens, UniProt P36888).
T3 sequence (P36888 whole entry): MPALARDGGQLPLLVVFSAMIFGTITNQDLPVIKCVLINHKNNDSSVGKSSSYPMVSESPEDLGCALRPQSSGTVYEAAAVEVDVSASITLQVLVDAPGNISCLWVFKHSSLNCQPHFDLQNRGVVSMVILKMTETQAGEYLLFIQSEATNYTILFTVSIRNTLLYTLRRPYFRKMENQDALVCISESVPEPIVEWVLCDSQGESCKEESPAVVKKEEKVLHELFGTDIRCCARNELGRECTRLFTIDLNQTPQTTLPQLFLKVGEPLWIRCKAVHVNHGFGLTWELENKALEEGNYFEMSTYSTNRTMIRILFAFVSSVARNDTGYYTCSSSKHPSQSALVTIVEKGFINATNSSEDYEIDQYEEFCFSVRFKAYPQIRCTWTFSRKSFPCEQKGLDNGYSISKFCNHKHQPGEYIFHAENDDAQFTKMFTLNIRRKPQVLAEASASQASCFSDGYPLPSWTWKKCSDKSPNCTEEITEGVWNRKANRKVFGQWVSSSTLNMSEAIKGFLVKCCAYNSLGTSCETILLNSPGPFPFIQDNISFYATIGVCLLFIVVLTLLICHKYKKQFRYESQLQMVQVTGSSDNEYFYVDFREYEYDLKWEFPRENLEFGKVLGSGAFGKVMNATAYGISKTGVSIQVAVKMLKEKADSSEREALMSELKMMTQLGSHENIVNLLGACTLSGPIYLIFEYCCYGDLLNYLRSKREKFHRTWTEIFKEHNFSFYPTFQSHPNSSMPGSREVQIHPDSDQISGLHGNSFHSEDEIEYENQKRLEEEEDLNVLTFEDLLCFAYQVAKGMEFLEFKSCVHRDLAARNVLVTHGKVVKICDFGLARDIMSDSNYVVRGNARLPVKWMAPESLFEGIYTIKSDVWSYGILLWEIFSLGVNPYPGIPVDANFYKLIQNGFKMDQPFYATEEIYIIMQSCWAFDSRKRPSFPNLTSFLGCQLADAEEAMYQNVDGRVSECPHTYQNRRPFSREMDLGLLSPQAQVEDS
Kind of experiment: Inhibition of FLT3 (unknown origin) by enzymatic assay.

The target in experiment [5] is T2, Macrophage colony-stimulating factor 1 receptor. Kind of experiment: Inhibition of CSF1R (unknown origin).
The target of experiment [6] is Vascular endothelial growth factor receptor 1 (Homo sapiens, UniProt P17948). Kind of experiment: Inhibition of FLT1 (unknown origin).
In experiment [7] the target is T4, Vascular endothelial growth factor receptor 2 (Homo sapiens, UniProt P35968). Kind of experiment: Inhibition of VEGFR-2 (unknown origin) in presence of ATP incubated for 45 mins by ELISA method. (In general: An ELISA detects its analyte on a solid surface through an enzyme-linked reagent.)
T4 sequence (P35968 whole entry): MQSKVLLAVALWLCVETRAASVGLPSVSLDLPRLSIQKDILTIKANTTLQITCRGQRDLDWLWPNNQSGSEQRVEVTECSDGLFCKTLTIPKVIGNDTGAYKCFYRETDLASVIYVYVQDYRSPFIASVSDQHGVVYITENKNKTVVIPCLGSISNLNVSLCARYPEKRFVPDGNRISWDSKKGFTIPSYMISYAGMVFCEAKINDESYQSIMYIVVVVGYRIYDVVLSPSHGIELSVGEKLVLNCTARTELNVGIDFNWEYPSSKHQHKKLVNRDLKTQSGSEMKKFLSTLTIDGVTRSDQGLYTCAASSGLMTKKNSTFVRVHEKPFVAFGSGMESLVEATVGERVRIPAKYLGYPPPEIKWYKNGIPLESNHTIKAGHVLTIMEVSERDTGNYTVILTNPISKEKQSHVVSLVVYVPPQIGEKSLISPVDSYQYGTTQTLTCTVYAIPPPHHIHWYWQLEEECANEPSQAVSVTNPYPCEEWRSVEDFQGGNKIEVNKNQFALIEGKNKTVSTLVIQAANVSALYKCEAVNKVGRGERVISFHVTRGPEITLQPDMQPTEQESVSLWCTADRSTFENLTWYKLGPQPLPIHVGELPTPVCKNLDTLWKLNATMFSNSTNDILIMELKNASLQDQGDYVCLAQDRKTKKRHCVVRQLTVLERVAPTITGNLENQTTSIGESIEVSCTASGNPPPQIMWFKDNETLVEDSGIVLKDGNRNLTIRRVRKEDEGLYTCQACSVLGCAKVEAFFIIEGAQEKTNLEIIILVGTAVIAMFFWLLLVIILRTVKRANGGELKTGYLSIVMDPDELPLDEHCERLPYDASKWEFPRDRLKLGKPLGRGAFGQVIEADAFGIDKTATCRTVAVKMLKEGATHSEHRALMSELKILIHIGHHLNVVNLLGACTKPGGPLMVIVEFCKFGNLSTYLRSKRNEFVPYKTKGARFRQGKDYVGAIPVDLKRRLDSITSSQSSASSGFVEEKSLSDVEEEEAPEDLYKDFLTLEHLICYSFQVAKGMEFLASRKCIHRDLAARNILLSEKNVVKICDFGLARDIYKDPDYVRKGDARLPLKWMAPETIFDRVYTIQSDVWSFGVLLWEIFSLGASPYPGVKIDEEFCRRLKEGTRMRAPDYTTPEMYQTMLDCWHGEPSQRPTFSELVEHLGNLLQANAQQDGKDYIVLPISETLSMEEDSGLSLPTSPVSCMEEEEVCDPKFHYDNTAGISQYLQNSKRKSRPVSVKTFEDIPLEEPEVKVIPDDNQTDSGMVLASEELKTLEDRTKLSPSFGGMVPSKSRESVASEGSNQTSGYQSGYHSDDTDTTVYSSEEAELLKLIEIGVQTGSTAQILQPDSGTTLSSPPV
Experiment [8] addresses T5, NT-3 growth factor receptor (Homo sapiens, UniProt Q16288). Kind of experiment: Inhibition of TRKC (unknown origin).
Experiment [9] has as its target T6, Tyrosine-protein kinase Lck (Homo sapiens, UniProt P06239). Kind of experiment: Inhibition of LCK (unknown origin) using TK as substrate incubated for 30 mins by HTRF assay. For orientation: TR-FRET usually uses a lanthanide donor and a delayed reading to cut background.
The target in experiment [10] is T5, NT-3 growth factor receptor. Kind of experiment: Inhibition of TRKC (unknown origin) by TR-FRET assay.
The target of experiment [11] is T7, Tyrosine-protein kinase receptor UFO (Homo sapiens, UniProt P30530).
T7 sequence (P30530 whole entry): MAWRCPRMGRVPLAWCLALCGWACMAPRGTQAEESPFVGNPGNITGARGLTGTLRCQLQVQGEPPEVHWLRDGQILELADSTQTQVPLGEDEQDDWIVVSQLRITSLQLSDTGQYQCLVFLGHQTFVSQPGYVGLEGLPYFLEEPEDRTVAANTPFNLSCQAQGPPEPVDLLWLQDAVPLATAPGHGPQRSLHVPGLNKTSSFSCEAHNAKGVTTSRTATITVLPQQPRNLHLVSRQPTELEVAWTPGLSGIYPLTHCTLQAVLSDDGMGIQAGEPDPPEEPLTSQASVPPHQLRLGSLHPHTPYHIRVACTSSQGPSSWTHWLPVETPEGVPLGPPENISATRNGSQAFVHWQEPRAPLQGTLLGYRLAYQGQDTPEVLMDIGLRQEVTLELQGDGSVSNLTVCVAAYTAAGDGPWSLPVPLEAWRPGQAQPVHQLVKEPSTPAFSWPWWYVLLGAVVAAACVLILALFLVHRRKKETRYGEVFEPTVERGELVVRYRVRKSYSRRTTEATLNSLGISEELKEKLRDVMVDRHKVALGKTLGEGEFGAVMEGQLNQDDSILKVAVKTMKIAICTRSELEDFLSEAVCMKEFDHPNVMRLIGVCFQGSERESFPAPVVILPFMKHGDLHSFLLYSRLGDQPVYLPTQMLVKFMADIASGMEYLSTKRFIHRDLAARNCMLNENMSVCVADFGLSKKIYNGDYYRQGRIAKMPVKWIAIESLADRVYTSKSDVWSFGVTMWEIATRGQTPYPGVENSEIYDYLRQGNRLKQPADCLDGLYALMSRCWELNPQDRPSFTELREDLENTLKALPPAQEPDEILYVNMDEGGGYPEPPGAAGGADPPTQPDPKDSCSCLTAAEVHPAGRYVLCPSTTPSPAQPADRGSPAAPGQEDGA
Kind of experiment: Inhibition of AXL (unknown origin) by FRET assay.

Experiment [12] addresses T6, Tyrosine-protein kinase Lck. Kind of experiment: Inhibition of LCK (unknown origin) at 10 uM using 33P-ATP as substrate by biochemical Hotspot kinase assay relative to control.
Target sequence in this assay (P06239 2-509 limits assumed): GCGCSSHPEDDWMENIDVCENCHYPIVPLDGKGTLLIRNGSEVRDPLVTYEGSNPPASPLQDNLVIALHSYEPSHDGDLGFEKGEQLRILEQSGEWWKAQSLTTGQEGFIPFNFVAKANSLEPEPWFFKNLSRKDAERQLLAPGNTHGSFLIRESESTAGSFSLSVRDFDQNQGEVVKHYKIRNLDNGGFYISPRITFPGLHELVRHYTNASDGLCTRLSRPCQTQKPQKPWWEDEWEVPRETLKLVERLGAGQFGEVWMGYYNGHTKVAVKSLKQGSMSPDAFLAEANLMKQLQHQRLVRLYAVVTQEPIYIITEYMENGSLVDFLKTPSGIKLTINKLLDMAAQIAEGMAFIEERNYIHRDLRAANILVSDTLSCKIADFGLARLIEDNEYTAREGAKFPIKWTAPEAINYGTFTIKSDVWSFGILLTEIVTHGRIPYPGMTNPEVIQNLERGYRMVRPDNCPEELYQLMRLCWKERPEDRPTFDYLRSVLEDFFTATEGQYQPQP
Experiment [13] has as its target Receptor-type tyrosine-protein kinase FLT3 (Homo sapiens) (UniProt P36888). Kind of experiment: Inhibition of FLT3 (unknown origin) at 10 uM relative to control.
The target of experiment [14] is Receptor-type tyrosine-protein kinase FLT3 (Homo sapiens, UniProt P36888, ITD). Kind of experiment: Inhibition of FLT3 ITD mutant (unknown origin) preincubated for 60 mins followed by ATP addition and measured after 1 hr by ADP-Glo assay. Background: ADP-Glo first removes unused ATP, then detects ADP through luciferase.
In experiment [15] the target is T8, Aurora kinase C (Homo sapiens, UniProt Q9UQB9).
T8 sequence (Q9UQB9 whole entry): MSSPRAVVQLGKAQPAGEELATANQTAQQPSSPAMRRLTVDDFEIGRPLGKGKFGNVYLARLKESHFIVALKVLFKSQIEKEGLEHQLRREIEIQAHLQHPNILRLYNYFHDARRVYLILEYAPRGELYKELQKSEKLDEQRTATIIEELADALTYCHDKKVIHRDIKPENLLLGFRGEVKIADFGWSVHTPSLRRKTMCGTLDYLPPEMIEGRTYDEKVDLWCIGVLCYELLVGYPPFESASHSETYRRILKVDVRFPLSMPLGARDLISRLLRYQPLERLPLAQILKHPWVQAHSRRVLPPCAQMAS
Kind of experiment: Inhibition of human AURKC by discoverX kinome scan assay.

The target of experiment [16] is T8, Aurora kinase C. Kind of experiment: Inhibition of AURKC (unknown origin).
Experiment [17] has as its target T4, Vascular endothelial growth factor receptor 2. Kind of experiment: Inhibition of KDR (unknown origin).
The target in experiment [18] is T1, Mast/stem cell growth factor receptor Kit. Kind of experiment: Inhibition of KIT (unknown origin) using ATP as substrate incubated for 1 hrs by ELISA.

SMILES strings stand for the structures. pIC50: −log10 of the molar value.

T1 sequence (P10721 whole entry): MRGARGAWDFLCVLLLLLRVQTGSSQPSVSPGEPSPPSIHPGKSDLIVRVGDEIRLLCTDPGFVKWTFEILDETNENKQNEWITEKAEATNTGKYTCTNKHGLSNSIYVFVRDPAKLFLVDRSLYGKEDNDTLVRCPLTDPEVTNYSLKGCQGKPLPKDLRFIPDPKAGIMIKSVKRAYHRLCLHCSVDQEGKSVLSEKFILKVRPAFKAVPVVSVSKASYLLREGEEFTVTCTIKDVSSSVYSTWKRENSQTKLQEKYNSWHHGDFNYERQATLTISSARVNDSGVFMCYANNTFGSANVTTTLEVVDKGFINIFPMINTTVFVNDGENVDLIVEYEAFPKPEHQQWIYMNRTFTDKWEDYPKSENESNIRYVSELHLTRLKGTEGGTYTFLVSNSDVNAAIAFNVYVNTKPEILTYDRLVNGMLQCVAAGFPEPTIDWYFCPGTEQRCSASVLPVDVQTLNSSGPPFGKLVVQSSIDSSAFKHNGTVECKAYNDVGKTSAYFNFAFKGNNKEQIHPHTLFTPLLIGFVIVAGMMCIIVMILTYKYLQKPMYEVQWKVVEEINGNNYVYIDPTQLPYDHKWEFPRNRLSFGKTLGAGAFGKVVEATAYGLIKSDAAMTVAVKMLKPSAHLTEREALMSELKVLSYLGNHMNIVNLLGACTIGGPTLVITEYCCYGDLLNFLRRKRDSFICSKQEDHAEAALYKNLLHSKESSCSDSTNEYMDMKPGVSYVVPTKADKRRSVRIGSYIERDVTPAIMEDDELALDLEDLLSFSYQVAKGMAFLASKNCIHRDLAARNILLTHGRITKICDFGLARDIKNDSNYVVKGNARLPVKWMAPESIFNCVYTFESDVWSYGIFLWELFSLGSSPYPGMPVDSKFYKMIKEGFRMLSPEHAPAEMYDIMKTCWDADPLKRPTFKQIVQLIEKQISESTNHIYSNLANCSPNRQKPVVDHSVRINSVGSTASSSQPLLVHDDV
T5 sequence (Q16288 whole entry): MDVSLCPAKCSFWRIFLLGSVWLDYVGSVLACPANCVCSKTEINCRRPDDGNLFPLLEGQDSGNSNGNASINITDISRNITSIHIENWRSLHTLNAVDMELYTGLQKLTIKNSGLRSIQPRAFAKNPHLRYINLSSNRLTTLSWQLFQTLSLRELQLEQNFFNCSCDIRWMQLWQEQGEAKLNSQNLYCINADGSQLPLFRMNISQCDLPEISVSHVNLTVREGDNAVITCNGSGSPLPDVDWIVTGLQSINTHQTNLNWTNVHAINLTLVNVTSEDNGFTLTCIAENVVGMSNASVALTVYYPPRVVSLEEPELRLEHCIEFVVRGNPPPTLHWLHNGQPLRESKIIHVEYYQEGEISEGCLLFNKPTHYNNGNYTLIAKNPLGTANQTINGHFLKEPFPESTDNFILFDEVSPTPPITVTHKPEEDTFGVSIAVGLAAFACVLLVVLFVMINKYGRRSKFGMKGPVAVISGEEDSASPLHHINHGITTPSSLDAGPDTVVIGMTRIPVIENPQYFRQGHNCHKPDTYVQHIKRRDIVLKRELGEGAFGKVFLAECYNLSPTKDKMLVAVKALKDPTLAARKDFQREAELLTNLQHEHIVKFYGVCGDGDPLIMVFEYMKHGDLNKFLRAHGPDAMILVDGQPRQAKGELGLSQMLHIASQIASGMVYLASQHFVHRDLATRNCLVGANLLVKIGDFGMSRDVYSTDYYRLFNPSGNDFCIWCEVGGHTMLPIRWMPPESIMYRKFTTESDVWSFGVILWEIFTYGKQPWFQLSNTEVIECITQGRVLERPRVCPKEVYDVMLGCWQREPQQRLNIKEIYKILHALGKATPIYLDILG

One may read the pIC50 as the negative decadic logarithm of the IC50, by convention in mol/L. Take `CNC(=O)c1nccc2cc(-c3cncc(Nc4ccc(OC5CC5)nc4)c3C)[nH]c12`: the negative logarithm of the IC50 (pIC50) in experiment [1] is 8.95.
As usually defined, the GI50 is the concentration giving 50% growth inhibition. A low value points to greater sensitivity of the cells. Turning to `COc1cc(NC(=O)Nc2cnc(Nc3ccc(N4CCOCC4)cc3)nc2Oc2cccc(OC)c2)cc(OC)c1`, in the experiment with SF-268, growth was halved (GI50) at 50.3 µM. The molecule also had a negative logarithm of the IC50 (pIC50) in [2] of 7.82.
In general, inhibition refers to the percentage by which the read-out fell short of the control. Lower therefore signals little suppression. In turn, `COc1ccc(Oc2nc(Nc3ccc(N4CCCCC4)nc3)ncc2NC(=O)c2cc(OC)cc(OC)c2)cc1` came in with an inhibition in experiment [3] of 14.5%.
In the case of `CC1(C)CC=C(c2nc(C3CC(C)(C)OC(C)(C)C3)ccc2NC(=O)c2nc(C#N)c[nH]2)CC1` [EDICOTINIB], the pIC50 in [4] is 6.72.
Take `COc1ccc(COc2ncc(Oc3ccnc(C(=O)N[11CH3])c3)cc2OC)cc1`: the pIC50 in experiment [5] is 7.92.
As for `FC(F)(F)c1ccc(CNc2ccc(Cc3c[nH]c4ncc(Cl)cc34)cn2)cn1` [PEXIDARTINIB], the pIC50 is 6.06 in [6]; 6.46 in [7]; 6.05 in experiment [8]; 6.07 in [9]; 7.70 in experiment [10].
`CNC(=O)c1cc2c(Oc3ccc(NC(=S)NC(=O)Cc4ccccc4)cc3F)ccnc2cc1OC` [TAS-115] had a pIC50 in experiment [11] of 7.82.
As for `COc1ccc(Oc2nc(Nc3ccc(N4CCOCC4)cc3)ncc2NC(=O)c2cccc(SC)c2)cc1`, in [12], the inhibition worked out at 87.7%.
`Nc1nccc2c1ccn2-c1cccc(NC(=O)c2ccc(N3CCOCC3)c(C(F)(F)F)c2)c1`: the pIC50 in experiment [5] was 7.52.
As to `Cc1nc2[nH]cc(Cc3ccc(NCc4ccc(C(F)(F)F)nc4)nc3)c2c(C)c1O`, the pIC50 is 5.79 in [1] and 4.24 in [5]. This molecule gave an inhibition in experiment [13] of 8.12%.
For the molecule `COc1nc(F)ccc1CNc1ccc(Cc2c[nH]c3ncc(C)cc23)c(F)n1`, the negative-log IC50 (pIC50) in experiment [14] is 6.41; against Aurora kinase C [15], 7.80; at Aurora kinase C [16], 6.00; in [17] it was 5.96; in experiment [18] it was 6.07.
